Results: patent US12318357B2, “Small molecule drugs and related methods for treatment of diseases related to TDP-43, alpha-synuclein, huntingtin's protein and tau protein oligomer formation” (ACELOT, INC., priority 2019, dated 2025)
Entries after “also recorded” stand apart in the source; their conditions may differ. Like-named read-outs stand apart in the source and are kept apart here.

What was measured:
[1] = tested on: TDP43 granules in U2OS cells stably expressing tGFP tagged human TDP-43; experiment: TDP43 granule formation inhibition in TDP43-tGFP-U2OS cells after sodium arsenite treatment; type: cell-based; settings: for TDP43 granule formation inhibition in cells after arsenite treatment (overall result): 24 h pre-incubation, 1-10 μM, 250 μM sodium arsenite 120 min
Excerpt: Amyotrophic lateral sclerosis (ALS) is one of the most common degenerative diseases of the motor neuron system. TDP-43 related pathologies seem to be a dominant type of pathologies across sporadic ALS types. A novel fluorescence cell-based assay for High Content Screening that allows the quantification of pathological TDP43 granules has been developed. In this work we have used this model to screen the effects of three compounds, using Riluzole as a positive control. The TDP-43 U2OS cell line contains U2OS cells stably expressing the tGFP tagged human TDP-43. This cell line has been designed to test compounds and to analyse their capability to modulate TDP43 granule formation after cytotoxic stress induction. The cell line was generated in Innoprot. It is a stable cell line that express the LacRI repressor protein and the TDP43-turboGFP protein. The cell line was generated using the pCMVLacRI-Hygro plasmid (Hygromycin resistance) and the pPuro-TDP43tGFP plasmid (that confers the puromycin resistance). The cell line was generated transfecting these plasmids with Lipofectamine LTX reagent, and the transfected cells were diluted until critical dilution. The negative control show a diffuse nuclear distribution of the fluorescence, but after sodium arsenite treatment the phenotype turns into a cytosolic vesicular pattern corresponding to stress granules and into an intensive nuclear granules pattern. The aim of this work was to assess different doses of 11 compounds.
The objective of these experiments was to screen the protective effect of 11 compounds and reference compound (arimoclomol) against cellular oxidative stress induced by sodium arsenite (i.e., arsenite). The compounds have been tested at 10 μM, […], 2 μM and 1 μM each, and appropriate controls (vehicle, arsenite and controls) have been included as well. The compound tested were the following: 101, 102, 103, 104, 105, 106, 107, 201, 202, 203 and 204.
Each compound was prepared in Optimem. In the final dilution, DMSO was added in order to obtain a final DMSO concentration of 0.1$, the same that the reference compound (arimoclomol). All compounds were tested at 0.1% DMSO (vehicle) final concentration.
Day 1 (Thursday). Recombinant TDP43-tGFP-U2OS cell line was thawed (2×10^6 cells per T75). Day 2 (Friday). After 24 hours, Cells were maintained in DMEM-F12 supplemented with 10% FBS at 37° C. in a humidified 5% CO2 atmosphere. Day 5 (Monday). Cells were plated in coated 96-well plates with a number of 10.000 cells (+/−2000 cells) per well. Cells were maintained in DMEM-F12 medium supplemented with 10% FBS for 24 h at 37° C. in a humidified 5% CO2 atmosphere. Day 6 (Tuesday). Cells were incubated with test compounds and IPTG 1 mM in triplicate assays during 24 hours. Day 7 (Wednesday). Culture medium was replaced, and cells were treated with 250 μM of sodium arsenite during 120 min and TDP-43 globs formation was quantified in both cell cytoplasm and cell nucleus. The TDP43 granules formation was quantified after the formaldehyde fixation (3.7 wt. %, 20 minutes) of the cells. The nuclei were stained using DAPI (2 μg/ml) and the fluorescence was measured using a Cell Insight High-Content Bioimager from Thermofisher. To detect the DAPI, the filters used were 380/10 and 460/10 nm for excitation and emission, respectively and to detect the TDP43 granules, the filters were 488/20 and 520/20 nm, respectively. The images were obtained with an objective of 20×, taking 9 pictures of each well. Cell quantification was performed delimitating the region of interest of the nuclei (stained with DAPI) and after quantification, the average of each triplicate was performed. Granule quantification was also performed using the Thermofisher Cellomics Scan Viewer 6.1.1. Spot detector application from Cell Software delimitated 2 regions of interest, the nuclei and cytosol. This software application quantified the number of granules per nuclei and the average granule number per cytosol of each well was calculated. […]

TDP-43307-319 WT peptide [2] = molecular target: T1, TDP-43307-319 WT peptide (Homo sapiens, UniProt Q13148); experiment: IM-MS monitoring of oligomerization of TDP-43307-319 (recovery study on aggregated peptide); type: biochemical; settings: for oligomer distribution initially after addition of inhibitor to aggregated WT peptide: initial time point; for remodeling of developed higher-order oligomers and prevention of re-formation (overall): recovery study on aggregated peptide; for rate of redistribution relative to the other inhibitors: recovery study, comparison among molecules; for oligomer distribution a week after single treatment: one week
T1 construct: TDP-43307-319 WT peptide 307 [MGGGMNF GAFSIN]319; made in house; host or cells: chemical synthesis (Fmoc solid phase peptide synthesis), not recombinant
Procedure: Peptide Synthesis and Purification. TDP-43307-319 WT peptide 307 [MGGGMNF GAFSIN]319 was synthesized using standard 9-fluorenylmethoxycarbonyl (Fmoc) chemistry using 2-(1H-benzotriazol-1-yl)-1,1,3,3-tetramethyluronium hexafluorophosphate/hydroxy-benzotriazole (HBTU/HOBT) manual solid phase peptide synthesis. The peptide was amidated with an Fmoc-Rink Amide resin (Anaspec). The peptide was cleaved from the resin using 94% TFA, 5% triisopropylsilane, and 1% phenol for 2 h at 295 K. The crude peptide was purified by reverse phase high performance liquid chromatography (RP-HPLC) on a semipreparative C18 column (Phenomenex) using gradients of water [0.1% (v/v) TFA] and acetonitrile [0.1% (v/v) TFA]. The peptide was dissolved in 6 M guanidine hydrochloride (GdnHCl) prior to injection due to its insolubility in water and acetonitrile. The peptide purity was >93% as determined by analytical RP-HPLC. The molecular mass of the peptide was verified by ESI mass spectrometry.
IM-MS was utilized to monitor the oligomerization of TDP-43307-319 in the presence of molecules AC0107, AC0105, AC0102 and AC0201. The ability of IMMS to separate species of a specific [m]z+ (m=mass, z=charge) that contains different [n]z+ (n=oligomer number) by measuring the arrival time distributions (ATDs) yields oligomeric distributions. Samples were prepared as mentioned previously and incubated at room temperature under quiescent conditions.
The TDP-43307-319 WT peptide was dissolved in 10 mM ammonium acetate (pH 7.4) with 2% HFIP to a final peptide concentration of 100 μM. The sample was incubated at room temperature under quiescent conditions for 4 h to develop higher-order oligomers. Two dominant mass/charge (m/z) peaks were always present in the mass spectra corresponding to [n]Z+=[1]1+ and [1]2+. […] After incubation at room temperature for 4 h, the distribution shifted toward the higher-order oligomers. […] Once the presence of higher-order oligomers was confirmed, an inhibitor (either [AC0107], [AC0105], [AC0102], [AC0201] or [AC0202]) was added in a 1:1 peptide (100 μM): inhibitor (100 μM) molar ratio. Subsequent time points were taken to monitor the remodeling properties of the inhibitors.

TDP-43307-319 WT peptide [3] = molecular target: T1, TDP-43307-319 WT peptide; experiment: as above; type: biochemical; settings: 100 μM peptide
[4] = Homo sapiens, U2OS, normalized to sodium arsenite and vehicle, read-out: maximum stress granule inhibition in cytosol
[5] = 1:1 peptide (100 μM): inhibitor (100 μM), added after 4 h aggregation

SMILES	TDP43 granule formation inhibition in cells after arsenite treatment (overall result) [1]	inhibition at 10 µM [1, 4] [%]	oligomer distribution initially after addition of inhibitor to aggregated WT peptide (TDP-43307-319 WT peptide [2]; 1:1, 100 μM each)	remodeling of developed higher-order oligomers and prevention of re-formation (overall) (TDP-43307-319 WT peptide [2])	other results
CC(=O)Nc1ccc(CNCCc2cccc(Cl)c2)cc1 [AC0101, N-[4-({[2-(3-chlorophenyl)ethyl]amino}methyl)phenyl]acetamide]	positive	44			inhibition at 5 µM ([1]; Homo sapiens, U2OS, at 5 μM, normalized to sodium arsenite and vehicle, read-out: maximum stress granule inhibition in nucleus): 62.5%
CN(C)Cc1ccc(CNCc2ccc3c(c2)OCCO3)cc1 [AC0102, (2,3-dihydro-1,4-benzodioxin-6-ylmethyl)({4 [(dimethylamino)-methyl]phenyl}methyl)amine]	positive	36.9	shift toward higher-order oligomers	able to remodel the developed higher-order oligomers and prevent the re-formation of these toxically related species	inhibition at 10 µM ([1]; Homo sapiens, U2OS, normalized to sodium arsenite and vehicle, read-out: maximum stress granule inhibition in nucleus): 27.7%; oligomer distribution after 1 h (TDP-43307-319 WT peptide [2]; 1:1, 100 μM each, 1 h after addition): remnants of higher-order oligomers are present; oligomer distribution at later time points (TDP-43307-319 WT peptide [2]; 1:1, 100 μM each, later time points): composed primarily of monomer and dimer; rate of redistribution relative to the other inhibitors (TDP-43307-319 WT peptide [2]): slower rate
CN(C)C(=O)C(c1ccccc1)N1CCN(c2ccc(O)cc2)CC1 (stereo not shown) [AC0103, 2-[4-(4-hydroxyphenyl)piperazin-1-yl]-N,N-dimethyl-2 phenylacetamide]	positive	47.2			
N#Cc1cccc(CNCc2ccc(CN3CCOCC3)cc2)c1 [AC0104, 3-[({[4-(morpholin-4 ylmethyl)phenyl]methyl}amino)methyl]benzonitrile]	mildly active				
N#Cc1ccc(CNCc2ccc(CN3CCCC3)cc2)cc1 [AC0105, 4-[({[4-(pyrrolidin-1 ylmethyl)phenyl]methyl}amino)methyl]benzonitrile]	mildly active		immediate dissociation of higher-order oligomers into monomer and dimer	able to remodel the developed higher-order oligomers and prevent the re-formation of these toxically related species	oligomer distribution a week after single treatment (TDP-43307-319 WT peptide [2]; 1:1, 100 μM each): maintained for a week
N#Cc1ccc(CNCc2cccc(CN3CCCC3)c2)cc1 [AC0107, 4-[({[3-(pyrrolidin-1-ylmethyl)phenyl]methyl}amino)methyl]benzonitrile]			initial increase in the number of higher-order oligomers	able to remodel the developed higher-order oligomers and prevent the re-formation of these toxically related species	time by which redistribution to mostly monomer and dimer is seen (TDP-43307-319 WT peptide [2]; 1:1, 100 μM each): ≥ 3 h; complexation between WT peptide and molecule in mass spectra (TDP-43307-319 WT peptide [2]; [5]): no complexation; level of aggregation (signal-to-noise ratio, baseline, [1]1+ peak) after addition of inhibitor (TDP-43307-319 WT peptide [2]; [5]): level of aggregation was reduced
CC(C)C(NCc1ccccc1)c1cccc(C=O)c1 (stereo not shown) [AC0201, 3-[1-(benzylamino)-2-methylpropyl]benzaldehyde]			immediately pushed the bulk of the distribution back to monomer, dimer, and trimer	successfully redistributed the oligomers to monomer and was able to prevent the re-formation of higher-order oligomers	oligomer distribution at 3-24 h (TDP-43307-319 WT peptide [2]; 1:1, 100 μM each, 3-24 h after addition): dominated by monomer and dimer; oligomer distribution a week after single treatment (TDP-43307-319 WT peptide [2]; 1:1, 100 μM each): dominate monomer peak was observed; rate of redistribution relative to the other inhibitors (TDP-43307-319 WT peptide [2]): fastest and most efficient redistribution; redistribution of oligomers at 10:1 peptide:inhibitor molar ratio (TDP-43307-319 WT peptide [3]; 10 μM inhibitor): takes a longer time to dissociate oligomers to mostly monomer; also recorded: very effective inhibitor; also recorded: effective; redistribution of oligomers at 4:1 peptide:inhibitor molar ratio (TDP-43307-319 WT peptide [3]; 25 μM inhibitor): effective at redistributing and maintaining the population of lower-order oligomers; redistribution of oligomers at 2:1 peptide:inhibitor molar ratio (TDP-43307-319 WT peptide [3]; 50 μM inhibitor): effective at redistributing and maintaining the population of lower-order oligomers
